Assay type in all cases: in vivo
For assay [1], the system named is Kochia (Kochia scoparia). The assay is described as follows: Test A preemergence. Particulars: Bassia scoparia, pre-emergence, 240 h; for pest or weed control at 125 g/ha: 125 g ai/ha, preemergence, 0 to 100 scale where 0 is no effect and 100 is complete control, read-out: Kochia plant response rating; for pest or weed control at 500 g/ha: 500 g ai/ha, Preemergence, visual injury vs untreated controls after approximately 10 d, read-out: Kochia plant response rating (0 to 100 scale where 0 is no effect and 100 is complete control). In short, it runs like this: (§1)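 Visual injury scores from 0, no effect, to 100, complete control, were assigned versus untreated controls roughly 10 d after treatment in the greenhouse. Test chemicals, formulated with surfactant in a non-phytotoxic solvent, were applied to planted seeds as a preemergence soil spray or postemergence to one- to two-leaf plants 2 to 10 cm tall, in loam–sand soil.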

In assay [2] the test system is barnyardgrass (Echinochloa crus-galli). Nature of the assay: Test A preemergence. Particulars: Echinochloa crus-galli, pre-emergence, 240 h; for pest or weed control at 125 g/ha: 125 g ai/ha, preemergence, 0 to 100 scale where 0 is no effect and 100 is complete control, read-out: Barnyardgrass plant response rating; for pest or weed control at 500 g/ha: 500 g ai/ha, Preemergence, visual injury vs untreated controls after approximately 10 d, read-out: Barnyardgrass plant response rating (0 to 100 scale where 0 is no effect and 100 is complete control). In a few lines: as §1

In assay [3] the test system is giant foxtail (Setaria faberii). Nature of the assay: Test A preemergence. Particulars: Setaria faberi, pre-emergence, 240 h; for pest or weed control at 125 g/ha: 125 g ai/ha, preemergence, 0 to 100 scale where 0 is no effect and 100 is complete control, read-out: Foxtail, Giant plant response rating; for pest or weed control at 500 g/ha: 500 g ai/ha, Preemergence, visual injury vs untreated controls after approximately 10 d, read-out: Foxtail, Giant plant response rating (0 to 100 scale where 0 is no effect and 100 is complete control). In a few lines: as §1

Assay [4] has as its system pigweed (Amaranthus retroflexus). Nature of the assay: Test A preemergence. The settings on record: Amaranthus retroflexus, pre-emergence, 240 h; for pest or weed control at 125 g/ha: 125 g ai/ha, preemergence, 0 to 100 scale where 0 is no effect and 100 is complete control, read-out: Pigweed plant response rating.
Assay [5] deals with ragweed (common ragweed, Ambrosia elatior). Nature of the assay: Test A preemergence. Particulars: Ambrosia artemisiifolia, pre-emergence, 240 h; for pest or weed control at 125 g/ha: 125 g ai/ha, preemergence, 0 to 100 scale where 0 is no effect and 100 is complete control, read-out: Ragweed plant response rating; for pest or weed control at 500 g/ha: 500 g ai/ha, Preemergence, visual injury vs untreated controls after approximately 10 d, read-out: Ragweed plant response rating (0 to 100 scale where 0 is no effect and 100 is complete control). In a few lines: as §1

For assay [6], the system named is ryegrass, Italian (Italian ryegrass, Lolium multiflorum). Nature of the assay: Test A preemergence. The settings on record: Lolium multiflorum, pre-emergence, 240 h; for pest or weed control at 125 g/ha: 125 g ai/ha, preemergence, 0 to 100 scale where 0 is no effect and 100 is complete control, read-out: Ryegrass, Italian plant response rating; for pest or weed control at 500 g/ha: 500 g ai/ha, Preemergence, visual injury vs untreated controls after approximately 10 d, read-out: Ryegrass, Italian plant response rating (0 to 100 scale where 0 is no effect and 100 is complete control). In short, it runs like this:
as §1

The subject of assay [7] is Galium (catchweed bedstraw, Galium aparine). Nature of the assay: Test A postemergence. The settings on record: Galium, post-emergence, 240 h, 125 g ai/ha, postemergence, visual injury rating after approximately 10 d; read-out: Galium plant response rating (0 to 100 scale, 0 no effect, 100 complete control). In short, it runs like this:
as §1

For assay [8], the system named is barnyardgrass (Echinochloa crus-galli). Nature of the assay: Test A postemergence. Particulars: Echinochloa crus-galli, post-emergence, 240 h, 125 g ai/ha, postemergence, visual injury rating after approximately 10 d; read-out: Barnyardgrass plant response rating (0 to 100 scale, 0 no effect, 100 complete control). In a few lines: as §1
Assay [9] has as its system corn (Zea mays). The assay is described as follows: Test A postemergence. Particulars: Zea mays, post-emergence, 240 h, 125 g ai/ha, postemergence, visual injury rating after approximately 10 d; read-out: Corn plant response rating (0 to 100 scale, 0 no effect, 100 complete control). In a few lines:
as §1

The subject of assay [10] is ragweed (common ragweed, Ambrosia elatior). The assay is described as follows: Test A postemergence. The settings on record: Ambrosia artemisiifolia, post-emergence, 240 h, 125 g ai/ha, postemergence, visual injury rating after approximately 10 d; read-out: Ragweed plant response rating (0 to 100 scale, 0 no effect, 100 complete control). In a few lines: as §1
Assay [11] relates to barnyardgrass (Echinochloa crus-galli). The assay is described as follows: Test B flooded paddy test. The settings on record: Echinochloa crus-galli, Flood, 250 g ai/ha; scale of 0 to 100 where 0 is no effect and 100 is complete control; read-out: Barnyardgrass plant response rating. In short, it runs like this:
(§2)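 Percent control, visually estimated after 13–15 d in the greenhouse on a 0–100 basis, compares treated pots with untreated ones; compound was put into paddy water 3 cm above the soil when plants had two leaves.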

Assay [12] concerns ducksalad (Heteranthera limosa). Nature of the assay: Test B flooded paddy test. The settings on record: Heteranthera limosa, Flood, 250 g ai/ha; scale of 0 to 100 where 0 is no effect and 100 is complete control; read-out: Ducksalad plant response rating. In short, it runs like this: as §2
The subject of assay [13] is rice (Oryra sativa). The assay is described as follows: Test B flooded paddy test. Particulars: Oryza sativa, Flood, 250 g ai/ha; scale of 0 to 100 where 0 is no effect and 100 is complete control; read-out: Rice plant response rating. In a few lines: as §2
Assay [14] relates to sedge, umbrella (small-flower umbrella sedge, Cyperus difformis). Nature of the assay: Test B flooded paddy test. Particulars: Cyperus difformis, Flood, 250 g ai/ha; scale of 0 to 100 where 0 is no effect and 100 is complete control; read-out: Sedge, Umbrella plant response rating. In a few lines:
as §2

Molecules are shown by their SMILES.

On to `CCOc1ccc([C@H]2CN(C)C(=O)[C@@H]2C(=O)Nc2cccc(F)c2F)cc1` [Compound 904], for which the pest or weed control at 125 g/ha in [1] came to 90%; in assay [2] it was 90%; in assay [3], 90%; in [4], 0%; in assay [5] it was 0%; in [6] it was 0%. Further, the pest or weed control at 125 g/ha is 30% in [7], 80% in assay [8] and 0% in assay [10]. In addition, the pest or weed control at 500 g/ha turned out to be 90% in [1]; 90% in [2]; 90% in assay [3]; 50% in assay [4] (500 g ai/ha, Preemergence, visual injury vs untreated controls after approximately 10 d, read-out: Pigweed plant response rating (0 to 100 scale where 0 is no effect and 100 is complete control)); 0% in assay [5]; 0% in assay [6]. Further, the plant injury at 125 g/ha in assay [9] came out at 0%. Moreover, the pest or weed control at 250 g/ha in [11], in assay [12], in [13] and in assay [14] was 0% each time.
In the case of `COc1cc([C@H]2CN(C)C(=O)[C@@H]2C(=O)Nc2ccccc2F)cc(C(F)(F)F)c1` [Compound 855], the pest or weed control at 125 g/ha in [1] came out at 20%; in [2], 90%; in [3], 90%; in [4], 30%; in assay [5], 0%; in assay [6] it was 0%. The pest or weed control at 125 g/ha came out at 0% in assay [7], 90% in [8] and 0% in assay [10]. Besides, the pest or weed control at 500 g/ha in assay [1] worked out at 30%; in assay [2], 100%; in assay [3] it was 90%; in assay [5], 0%; in [6] it was 30%. The plant injury at 125 g/ha in [9] worked out at 70%. In addition, the pest or weed control at 250 g/ha in assay [11] amounted to 70%; in [12] it was 75%; in assay [13], 0%; in [14] it was 0%.

Source of the values: patent publication US12077503B2, “Substituted cyclic amides and their use as herbicides” (FMC CORPORATION, priority 2015, dated 2024).
